The assay relates to Ovcar3-GTL catenae. Briefly: Ovcar3-GTL catena drug sensitivity / proliferation screen (alamarBlue, 384-well). For orientation: Resazurin is reduced to fluorescent resorufin, in cell work by metabolically active cells.
Setting [1] is: read-out: IC50 (μM) No coat, pathway-specific inhibitors; catena cells without glycocalyx coat.
Where [2] appears, read: read-out: IC50 (μM) With coat, pathway-specific inhibitors; catena cells with glycocalyx coat.
The mark [3] stands for this setting: increased resistance of catena cells with glycocalyx coat versus no coat.
The mark [4] stands for this setting: ratio of IC50 day 6 to day 1, Ovcar3-GTL catenae.
Where [5] appears, read: read-out: IC50 (μM) Addition on Day 1; Ovcar3-GTL catenae; compound added one day after seeding (cells predominantly lacking a glycocalyx).
Setting [6] is: read-out: IC50 (μM) Addition on Day 6; Ovcar3-GTL catenae; compound added six days after seeding (established or substantial glycocalyx).
[7] abbreviates: 24 h, read-out: IC50 (μM) Addition on Day 1, Ovcar3-GTL catenae; compound added one day after seeding (cells predominantly lacking a glycocalyx).
Setting [8] is: 144 h, read-out: IC50 (μM) Addition on Day 6, Ovcar3-GTL catenae; compound added six days after seeding (established or substantial glycocalyx).
Setting [9] is: read-out: IC50 (μM) With coat; pathway-specific inhibitors; catena cells with glycocalyx coat.
[10] abbreviates: LOPAC 1280 HTS; compound at 0.2 μM.

Structures can show the parent of a compound that is named as a salt. Where two headings read alike, the source gives them in different places.

A word on the IC50: it is the concentration at which inhibition is half-maximal.

Procedure: Cells were resuspended in M5-FCS to produce homogenous cultures of single cells which were seeded in 50 μL aliquots per well at the indicated cell densities and grown for the indicated times before addition of test compounds or other reagents.
For these experiments, 25 Ovcar3-GTL catena or 250 Ovcar3-GTL catena cells were seeded per well as described above. […] Five days after adding the test compound, alamarBlue® was added to the cultures and culture absorbance was measured 48 hours later.
The assays were conducted on catena cells with or without a glycocalyx coat and the IC50 values were determined.
Each compound was tested against three cellular entities (catena cells with or without the coat and established tumor spheroids) at 5 μM, 0.2 μM and 0.008 μM of compounds (with replicates).

On to `COc1cc2nccc(Oc3ccc(NC(=O)Nc4cc(C)on4)c(Cl)c3)c2cc1OC` [AV-951 (Tivozanib), Tivozanib], for which the IC50 by setting is: under setting [1], 13.4 µM; under setting [2], > 25 µM.

As to `CCCCCCCCCCCCCCCCCCOP(=O)([O-])OC1CC[N+](C)(C)CC1` [Perifosine], under setting [3], the Fold resistance stood at 4 fold. Also, the IC50 under setting [1] is 3.14 µM and the IC50 under setting [2] is 13.4 µM.

In the case of `O=C(NOCC1CC1)c1ccc(F)c(F)c1Nc1ccc(I)cc1Cl` [CI-1040 (PD184352)], the IC50 under setting [1] is > 25 µM and the IC50 under setting [2] was > 25 µM.

Turning to `CO[C@@]12[C@H](COC(N)=O)C3=C(C(=O)C(C)=C(N)C3=O)N1C[C@@H]1N[C@@H]12` [mitomycin-C], the “Increase in Resistance Day6/Day 1” value under setting [4] was found to be 60 fold. In addition, the IC50 under setting [5] worked out at 0.05 µM and the IC50 under setting [6] was 3 µM.

Take `CC(=O)c1c(C)c2cnc(Nc3ccc(N4CCNCC4)cn3)nc2n(C2CCCC2)c1=O` [PD-0332991]: the IC50 reads like this: under setting [7], 0.6 µM; under setting [8], 50 µM; under setting [1], 13.4 µM; under setting [2], 13.4 µM. In addition, the “Increase in Resistance Day6/Day 1” value under setting [4] is reported as 83 fold.

For `CN1CCN(c2ccc3nc(-c4c(N)c5c(F)cccc5[nH]c4=O)[nH]c3c2)CC1` [CHIR-258 (Dovitinib), Dovitinib], under setting [3], the Fold resistance is 4 fold. Also, the IC50 amounted to 3.14 µM under setting [1] and 13.4 µM under setting [2].

With `COc1cc2c(Oc3ccc(NC(=O)C4(C(=O)Nc5ccc(F)cc5)CC4)cc3F)ccnc2cc1OCCCN1CCOCC1` [XL880 (GSK1363089EXEL-2880)], the IC50 by setting is: under setting [1], 0.05 µM; under setting [2], 13.4 µM.

For the compound `Cc1[nH]c(/C=C2\C(=O)Nc3ccc(S(=O)(=O)N(C)c4cccc(Cl)c4)cc32)c(C)c1C(=O)N1CCN(C)CC1` [SU11274 (PKI-SU11274)], the Fold resistance under setting [3] is >8 fold. Further, the IC50 by setting is: under setting [1], 3.14 µM; under setting [2], > 25 µM.

Turning to `FC(F)c1nc2ccccc2n1-c1nc(N2CCOCC2)nc(N2CCOCC2)n1` [ZSTK474], the Fold resistance under setting [3] is given as >8 fold. Besides, the IC50 is 3.14 µM under setting [1] and > 25 µM under setting [2].

Consider `COC(=O)c1ccc2c(c1)NC(=O)/C2=C(\Nc1ccc(N(C)C(=O)CN2CCN(C)CC2)cc1)c1ccccc1` [BIBF1120 (Vargatef)], for which the IC50 reads like this: under setting [1], 13.4 µM; under setting [2], 13.4 µM.

As to `CO[C@H]1C[C@@H]2CC[C@@H](C)[C@@](O)(O2)C(=O)C(=O)N2CCCC[C@H]2C(=O)O[C@H]([C@H](C)C[C@@H]2CC[C@@H](O)[C@H](OC)C2)CC(=O)[C@H](C)/C=C(\C)[C@@H](O)[C@@H](OC)C(=O)[C@H](C)C[C@H](C)/C=C/C=C/C=C/1C` [rapamycin], the IC50 runs as follows: under setting [7], 12 µM; under setting [8], 25 µM. For the same compound, the “Increase in Resistance Day6/Day 1” value under setting [4] turned out to be 2 fold.

Consider `CC[C@@H]1C(=O)N(C)c2cnc(Nc3ccc(C(=O)NC4CCN(C)CC4)cc3OC)nc2N1C1CCCC1` [BI 2536], for which the IC50 was < 0.001 µM (read-out: IC50 (μM) No coat) and 13.4 µM (read-out: IC50 (μM) With coat).

With `Cc1nc(Nc2ncc(C(=O)Nc3c(C)cccc3Cl)s2)cc(N2CCN(CCO)CC2)n1` [dasatinib], the IC50 reads like this: under setting [7], > 100 µM; under setting [8], > 100 µM.

Take `CCN(CC)CCNC(=O)c1c(C)[nH]c(/C=C2\C(=O)Nc3ccc(F)cc32)c1C` [Sunitinib Malate (Sutent), Sunitinib Malate]: the Fold resistance under setting [3] was 4 fold. Moreover, the IC50 amounted to 3.14 µM under setting [1] and 13.4 µM under setting [2].

Consider `COCCNCc1ccc(-c2cc3nccc(Oc4ccc(NC(=S)NC(=O)Cc5ccc(F)cc5)cc4F)c3s2)nc1` [MGCD-265], for which the Fold resistance under setting [3] is recorded as >8 fold. The IC50 under setting [1] came to 3.14 µM and the IC50 under setting [2] was > 25 µM.

As to `C/C(=C\c1csc(C)n1)[C@@H]1C[C@@H]2O[C@]2(C)CCC[C@H](C)[C@H](O)[C@@H](C)C(=O)C(C)(C)[C@@H](O)CC(=O)O1` [Epo-B], under setting [4], the “Increase in Resistance Day6/Day 1” value was 4,000 fold. For the same compound, the IC50 reads like this: under setting [5], 0.025 µM; under setting [6], > 100 µM.

For `CNC(=O)c1cc(Oc2ccc(NC(=O)Nc3ccc(Cl)c(C(F)(F)F)c3)c(F)c2)ccn1` [BAY 73-4506 (Regorafenib), Regorafenib], the IC50 reads like this: under setting [1], 13.4 µM; under setting [2], 13.4 µM.

With `O=C(/C=C/c1ccc(CN(CCO)CCc2c[nH]c3ccccc23)cc1)NO` [LAQ824 (NVP-LAQ824, Dacinostat), Dacinostat], under setting [3], the Fold resistance turned out to be 16 fold. Moreover, the half-maximal inhibitory concentration (IC50) was 0.01 µM under setting [1], < 0.2 µM under setting [2] and 0.2 µM under setting [9].

Take `Cc1cc(Nc2cc(N3CCN(C)CC3)nc(Sc3ccc(NC(=O)C4CC4)cc3)n2)[nH]n1` [VX-680 (Tozasertib), Tozasertib]: the IC50 reads like this: under setting [1], 0.05 µM; under setting [2], > 25 µM.

On to `CCNC(=O)c1noc(-c2cc(C(C)C)c(O)cc2O)c1-c1ccc(CN2CCOCC2)cc1` [NVP-AUY922], for which the Fold resistance under setting [3] turned out to be 24 fold.

Regarding `C[C@@H](N)[C@H]1CC[C@H](C(=O)Nc2ccncc2)CC1` [Y27632], the IC50 under setting [7] is > 100 µM, the 50% inhibitory concentration (IC50) under setting [8] is > 100 µM, the IC50 under setting [1] is > 25 µM and the IC50 under setting [2] was > 25 µM.

Compound `NCC(=O)Nc1ccc(-n2nc(C(F)(F)F)cc2-c2ccc3c(ccc4ccccc43)c2)cc1` [OSU-03012] returned a Fold resistance under setting [3] of 4 fold. Also, the IC50 runs as follows: under setting [1], 3.14 µM; under setting [2], 13.4 µM.

For the compound `Cc1[nH]c(/C=C2\C(=O)Nc3ccc(S(=O)(=O)Cc4c(Cl)cccc4Cl)cc32)c(C)c1C(=O)N1CCC[C@@H]1CN1CCCC1` [PHA-665752], under setting [3], the Fold resistance is listed as 1 fold. Further, the IC50 by setting is: under setting [1], 3.14 µM; under setting [2], 3.14 µM.

For the compound `CS(=O)(=O)N1CCN(Cc2cc3nc(-c4cccc5[nH]ncc45)nc(N4CCOCC4)c3s2)CC1` [GDC-0941], the Fold resistance under setting [3] is listed as >8 fold. Also, the IC50 by setting is: under setting [1], 3.14 µM; under setting [2], > 25 µM.

`Cc1ccc(C(=O)Nc2ccc(CN3CCN(C)CC3)c(C(F)(F)F)c2)cc1C#Cc1cnc2cccnn12` [AP24534 (Ponatinib), Ponatinib]: the Fold resistance under setting [3] worked out at 16 fold. For the same compound, the IC50 was 0.78 µM (read-out: IC50 (μM) No coat) and 13.4 µM (read-out: IC50 (μM) With coat).

As for `CNC(=O)c1cc(Oc2ccc(NC(=O)Nc3ccc(Cl)c(C(F)(F)F)c3)cc2)ccn1` [Sorafenib Tosylate (Bay 43-9006), Sorafenib Tosylate], the IC50 is, setting by setting: under setting [1], 13.4 µM; under setting [2], 13.4 µM.

As for `c1ccc2c(c1)[I+]c1ccccc1-2` [diphenyleneiodonium chloride], the “toxicity to catena cells with a glycocalyx coat” value (“toxicity to catena cells” for short) is reported as “exert toxicity”.

For `Cn1c(=O)n(-c2ccc(C(C)(C)C#N)cc2)c2c3cc(-c4cnc5ccccc5c4)ccc3ncc21` [BEZ235 (NVP-BEZ235)], the IC50 under setting [1] stood at 0.05 µM and the IC50 under setting [2] is > 25 µM.

As for `COc1cc2c(c(OC)c1OC)-c1ccc(OC)c(=O)cc1[C@@H](NC(C)=O)CC2` [colchicine], under setting [10], the “toxicity to catena cells” value is “exert toxicity”.

For the compound `CC1(C)CNc2cc(NC(=O)c3cccnc3NCc3ccncc3)ccc21` [Motesanib Diphosphate (AMG-706), Motesanib Diphosphate], the IC50 reads like this: under setting [1], > 25 µM; under setting [2], > 25 µM.

`Cn1cc(C2=C(c3ccc(Cl)cc3Cl)C(=O)NC2=O)c2ccccc21` [SB 216763]: the IC50 is > 25 µM under setting [1] and > 25 µM under setting [2].

As for `O=c1cc(N2CCOCC2)oc2c(-c3ccccc3)cccc12` [LY294002], the IC50 by setting is: under setting [7], 25 µM; under setting [8], > 100 µM. Moreover, the “Increase in Resistance Day6/Day 1” value under setting [4] worked out at 4 fold.

Take `C/C1=C/C[C@@H](/C(C)=C/c2csc(C)n2)OC(=O)C[C@H](O)C(C)(C)C(=O)[C@H](C)[C@@H](O)[C@@H](C)CCC1` [dEpoB]: under setting [4], the “Increase in Resistance Day6/Day 1” value is recorded as 250,000 fold. Besides, the IC50 was 0.0004 µM under setting [5] and > 100 µM under setting [6].

Consider `CC(C)C[C@H](NC(=O)[C@H](Cc1ccccc1)NC(=O)c1cnccn1)B(O)O` [bortezomib], for which the IC50 came out at 0.013 µM under setting [7] and 0.013 µM under setting [8].

As for `C[C@H]1CCC/C=C/[C@@H]2C[C@H](O)C[C@H]2[C@H](O)/C=C/C(=O)O1` [brefeldin A], under setting [10], the “toxicity to catena cells” value was “exert toxicity”.

Regarding `N#CC(=C(/N)Sc1ccccc1N)/C(C#N)=C(\N)Sc1ccccc1N` [U0126], the IC50 runs as follows: (read-out: IC50 (μM) No coat) 13.4 µM; (read-out: IC50 (μM) With coat) > 25 µM.

On to `COc1cccc2c1C(=O)c1c(O)c3c(c(O)c1C2=O)C[C@@](O)(C(C)=O)C[C@@H]3O[C@H]1C[C@H](N)[C@H](O)[C@H](C)O1` [daunarubacin], for which, under setting [4], the “Increase in Resistance Day6/Day 1” value was determined as 133 fold. Besides, the IC50 is, setting by setting: under setting [5], 0.006 µM; under setting [6], 0.8 µM.

Take `COc1cc2c(N3CCN(C(=O)Nc4ccc(OC(C)C)cc4)CC3)ncnc2cc1OCCCN1CCCCC1` [Tandutinib (MLN518), Tandutinib]: the IC50 came out at 13.4 µM under setting [1] and 13.4 µM under setting [2].

Under setting [3], `NC1(c2ccc(-c3nc4ccn5c(=O)[nH]nc5c4cc3-c3ccccc3)cc2)CCC1` [MK-2206] showed a Fold resistance of 4 fold. In addition, the IC50 runs as follows: under setting [1], 3.14 µM; under setting [2], 13.4 µM.

Turning to `OCCn1cc(-c2cnc3nnn(Cc4ccc5ncccc5c4)c3n2)cn1` [PF-04217903], the IC50 is, setting by setting: under setting [1], > 25 µM; under setting [9], > 25 µM.

Consider `C[C@@H](Oc1cc(-c2cnn(C3CCNCC3)c2)cnc1N)c1c(Cl)ccc(F)c1Cl` [PF-02341066, Crizotinib], for which the IC50 came to 0.8 µM under setting [7], 25 µM under setting [8], 0.78 µM under setting [1] and 13.4 µM under setting [2]. The same compound returned a Fold resistance under setting [3] of 16 fold. For the same compound, the “Increase in Resistance Day6/Day 1” value under setting [4] is on record as 31 fold.

The values are drawn from patent US20150030583A1, “Methods of Treating Serosal Cancer” (SLOAN KETTERING INSTITUTE FOR CANCER RESEARCH, priority 2011, published 2015).
